Data from patent publication US20240116946A1 (Gilead Sciences, Inc., priority 2022, published 2024).
Where two headings read alike, the source gives them in different places.

What was measured:
SARS-CoV-2-NLuc = assay: microbe, parasite or virus in culture; assay type: cell-based, SARS Coronavirus 2
[1] = target: recombinant SARS-CoV-2 Main protease (Mpro) (Severe acute respiratory syndrome coronavirus 2 (2019-nCoV) (SARS-CoV-2), UniProt P0DTD1); assay: Cov Mpro Biochemical IC50 Assay
[2] = recombinant SARS-CoV-2 Mpro 7.5 nM, fluorogenic peptide substrate 40 μM, read-out: MPro IC50
[3] = Severe acute respiratory syndrome coronavirus, 48 h, read-out: MPro EC50
[4] = recombinant SARS-CoV-2 Mpro, fluorogenic peptide substrate, read-out: MPro IC50
[5] = Severe acute respiratory syndrome coronavirus, 48 h; read-out: MPro EC50

Row | Molecule | IC50 [1, 2] | EC50 (SARS-CoV-2-NLuc; [3]) | IC50 [1, 4] | further results
1 | COc1cc(-c2cc3[nH]c(=O)n(-c4cncc5cccc(F)c45)c(=O)c3s2)c(Cl)cc1F (single isomer, unassigned) [Example 899, 6-(2-chloro-4-fluoro-5-methoxyphenyl)-3-(5-fluoroisoquinolin-4-yl)thieno[3,2-d]pyrimidine-2,4(1H,3H)-dione] | 4.03 nM |  |  | EC50 (SARS-CoV-2-NLuc; read-out: MPro EC50): 3.13 nM
2 | Cn1ncc(-c2cccc(Cl)c2-c2cc3[nH]c(=O)n(-c4cncc5ccccc45)c(=O)c3s2)c1C(F)(F)F [Example 526] | 15.7 nM | 8.34 nM |  | 
3 | COc1ccc(C#N)c(-c2cc3[nH]c(=O)n(-c4cncc5c4OCCC5)c(=O)c3s2)c1 [Example 587] | 27.9 nM | 117 nM |  | 
4 | O=c1[nH]c2cc(-c3c(Cl)cccc3-c3ccncc3F)ccc2c(=O)n1-c1cncc2ccccc12 [Example 332] |  | 39 nM | 15.3 nM | 
5 | COc1ccc(Cl)c(-c2ccc3c(=O)n(-c4cncc5ccccc45)c(=O)[nH]c3c2)c1 [Example 92, 7-(2-chloro-5-methoxy-phenyl)-3-(4-isoquinolyl)-1H-quinazoline-2,4-dione] |  | 37.5 nM | 33.9 nM | 
6 | COc1cc(-c2cc3c(s2)c(=O)n(-c2cncc4cccnc24)c(=O)n3CCC#N)c(Cl)cc1F (single isomer, unassigned) [Example 1036, 3-(6-(2-chloro-4-fluoro-5-methoxyphenyl)-3-(1,6-naphthyridin-8-yl)-2,4-dioxo-3,4-dihydrothieno[3,2-d]pyrimidin-1(2H)-yl)propanenitrile] | 1.42 nM |  |  | EC50 (SARS-CoV-2-NLuc; read-out: MPro EC50): 0.66 nM
7 | COc1cc(-c2cc3c(s2)c(=O)n(-c2cncc(F)c2C)c(=O)n3CCC#N)c(C#N)cc1F [Example 849] | 12.8 nM | 30.4 nM |  | 
8 | Cc1cc2c(=O)n(-c3cncc4ccccc34)c(=O)[nH]c2cc1-c1ccccc1Cl [Example 81] |  | 184 nM | 231 nM | 
9 | COc1cc(-c2cc3c(s2)c(=O)n(-c2cncc4cc(F)ccc24)c(=O)n3CCC#N)c(Cl)cc1F [Example 951] | 9.45 nM | 5.38 nM |  | 
10 | N#CCCn1c(=O)n(-c2cncc3ccccc23)c(=O)c2sc(-c3ccccc3C#N)cc21 [Example 819, 2-(1-(2-cyanoethyl)-3-(isoquinolin-4-yl)-2,4-dioxo-1,2,3,4-tetrahydrothieno[3,2-d]pyrimidin-6-yl)benzonitrile] | 10.3 nM | 11.3 nM |  | 
11 | O=c1[nH]c2cc(-c3c(Cl)cccc3-c3cnn4c3COCC4)ccc2c(=O)n1-c1cncc2ccccc12 [Example 305] |  | 12.8 nM | 8.8 nM | 
12 | Cc1ccc(C#N)cc1-c1cc2c(s1)c(=O)n(-c1cncc3ccccc13)c(=O)n2CCC#N [Example 810] | 19.8 nM |  |  | EC50 (SARS-CoV-2-NLuc; [5]): 86.9 nM
13 | Cc1cc(-c2cc3[nH]c(=O)n(-c4cncc5ccccc45)c(=O)c3s2)c(Cl)cc1F [Example 350] |  | 49.2 nM | 17.2 nM | 
14 | Cc1c(-c2cccc(Cl)c2-c2cc3[nH]c(=O)n(-c4cncc5ccccc45)c(=O)c3s2)cn2ncnc2c1C [Example 114] |  | 44.4 nM | 10.9 nM | 
15 | COc1cc(-c2cc3[nH]c(=O)n(-c4cncc5ccccc45)c(=O)c3s2)c(C)cn1 [Example 719] | 364 nM | 938 nM |  | 
16 | COc1ccc(C#N)c(-c2cc3[nH]c(=O)n(-c4cncc5ccccc45)c(=O)c3s2)c1 (single isomer, unassigned) [Example 554, 2-(3-(isoquinolin-4-yl)-2,4-dioxo-1,2,3,4-tetrahydrothieno[3,2-d]pyrimidin-6-yl)-4-methoxybenzonitrile] | 3.88 nM |  |  | EC50 (SARS-CoV-2-NLuc; read-out: MPro EC50): 14.9 nM
17 | N#CCCn1c(=O)n(-c2cncc3ccccc23)c(=O)c2sc(-c3cc(F)ccc3Cl)cc21 [Example 831] | 8.53 nM | 7.19 nM |  | 
18 | Cc1csc2cncc(-n3c(=O)[nH]c4cc(-c5c(Cl)cccc5-c5cncc(C#N)c5)sc4c3=O)c12 [Example 674] | 3.85 nM | 2.82 nM |  | 
19 | COc1ccc(Cl)c(-c2cc3[nH]c(=O)n(-c4cncc5c4CCCO5)c(=O)c3s2)c1 [Example 599] | 4.98 nM | 48.9 nM |  | 
20 | N#CCCn1c(=O)n(-c2cncc(F)c2)c(=O)c2sc(-c3ccccc3C#N)cc21 [Example 864] | 53.2 nM |  |  | EC50 (SARS-CoV-2-NLuc; [5]): 150 nM
21 | O=c1[nH]c2cc(-c3c(Cl)cccc3OCc3cccnn3)ccc2c(=O)n1-c1cncc2ccccc12 [Example 302] |  | 108 nM | 30.3 nM | 
22 | O=c1[nH]c2cc(-c3cccc4ccccc34)ccc2c(=O)n1-c1cncc2ccccc12 [Example 26] |  | 47900 nM | 40100 nM | 
23 | COc1cc(-c2cc3[nH]c(=O)n(-c4cncc5cccc(Cl)c45)c(=O)c3s2)c(Cl)cc1F [Example 1074] | 4.32 nM |  |  | EC50 (SARS-CoV-2-NLuc; read-out: MPro EC50): 5.89 nM
24 | O=c1[nH]c2cc(-c3c(Cl)cccc3-c3ccncc3)ccc2c(=O)n1-c1cncc2ccccc12 [Example 329] |  | 22.3 nM | 9.77 nM | 

Row | Molecule | IC50 [1, 2] | EC50 (SARS-CoV-2-NLuc; [3]) | IC50 [1, 4] | further results
25 | N#CCCn1c(=O)n(-c2cncc(C#N)c2)c(=O)c2sc(-c3ccccc3Cl)cc21 [Example 1061, 5-(6-(2-chlorophenyl)-1-(2-cyanoethyl)-2,4-dioxo-1,4-dihydrothieno[3,2-d]pyrimidin-3(2H)-yl)nicotinonitrile] | 5.07 nM |  |  | EC50 (SARS-CoV-2-NLuc; [5]): 14.6 nM
26 | Cc1c(C2CC2)cncc1-n1c(=O)[nH]c2cc(-c3ccccc3Cl)sc2c1=O [Example 377] |  | 6230 nM | > 50000 nM | 
27 | COc1ccc(C#N)c(-c2cc3[nH]c(=O)n(-c4cncc(C)c4OCC(F)(F)F)c(=O)c3s2)c1 [Example 225] |  | 87.7 nM | 12.1 nM | 
28 | COc1cc(-c2cc3c(s2)c(=O)n(-c2cncc4ccccc24)c(=O)n3C)c(Cl)cc1F [Example 993, 6-(2-chloro-4-fluoro-5-methoxy-phenyl)-3-(4-isoquinolyl)-1-methyl-thieno[3,2-d]pyrimidine-2,4-dione] | 5.63 nM |  |  | EC50 (SARS-CoV-2-NLuc; [5]): 4.38 nM
29 | O=c1[nH]c2cc(-c3ccccc3Cl)sc2c(=O)n1-c1cncc2ccc(N3CCOCC3)cc12 [Example 385, 6-(2-chlorophenyl)-3-(6-morpholinoisoquinolin-4-yl)thieno[3,2-d]pyrimidine-2,4(1H,3H)-dione] |  | 14 nM | 5.51 nM | 
30 | O=c1c2ccc(-c3ccccc3Cl)cc2[nH]c(=S)n1-c1cncc2ccccc12 [Example 239] |  |  |  | EC50 (SARS-CoV-2-NLuc; [5]): 1820 nM; IC50 ([1]; MPro IC50, recombinant SARS-CoV-2 Mpro, fluorogenic peptide substrate): 4840 nM
31 | Cc1c(-c2cccc(Cl)c2-c2ccc3c(=O)n(-c4cncc5ccccc45)c(=O)[nH]c3c2)cnn1C [Example 243] |  | 12.2 nM | 11.1 nM | 
32 | COc1ccc(Cl)c(-c2cc3[nH]c(=O)n(-c4cncc5ccc(N6CC(F)(F)OC(F)(F)C6)cc45)c(=O)c3s2)c1 [Example 229] |  | 28.9 nM | 22.5 nM | 
33 | O=c1[nH]c2cc(-c3ccccc3)ccc2c(=O)n1-c1cncc2ccccc12 [Example 25] |  | 5040 nM | 1410 nM | 
34 | CN1C(=O)COc2ccc(-c3cccc(Cl)c3-c3ccc4c(=O)n(-c5cncc6ccccc56)c(=O)[nH]c4c3)cc21 [Example 196] |  | 15.6 nM | 17.4 nM | 
35 | COc1ccc(Cl)c(-c2cc3[nH]c(=O)n(-c4cncc5scc(C)c45)c(=O)c3s2)c1 [Example 609, 6-(2-chloro-5-methoxyphenyl)-3-(3-methylthieno[2,3-c]pyridin-4-yl)thieno[3,2-d]pyrimidine-2,4(1H,3H)-dione] | < 2.54 nM | < 3.39 nM |  | 
36 | O=c1[nH]c2cc(-c3ccccc3Cl)sc2c(=O)n1-c1cncc2ccc(N3CC(F)(F)OC(F)(F)C3)cc12 [Example 228] |  | 73.1 nM | 294 nM | 
37 | CCOc1ccc(Cl)c(-c2ccc3c(=O)n(-c4cncc5ccccc45)c(=O)[nH]c3c2)c1 [Example 300] |  | 60.5 nM | 148 nM | 
38 | CC(C)Cn1cc(-c2cccc(Cl)c2-c2ccc3c(=O)n(-c4cncc5ccccc45)c(=O)[nH]c3c2)c(C(F)(F)F)n1 [Example 201] |  | 59 nM | 110 nM | 
39 | COc1cncc(-n2c(=O)c3sc(-c4ccccc4C#N)cc3n(CCC#N)c2=O)c1 [Example 814] | 44.6 nM |  |  | EC50 (SARS-CoV-2-NLuc; [5]): 134 nM
40 | COc1ccc(C#N)c(-c2cc3[nH]c(=O)n(-c4cncc5ccccc45)c(=O)c3s2)c1 [Example 532, 2-(3-(isoquinolin-4-yl)-2,4-dioxo-1,2,3,4-tetrahydrothieno[3,2-d]pyrimidin-6-yl)-4-methoxybenzonitrile] | < 2.65 nM | 17.4 nM |  | 
41 | COc1cc(-c2ccc3c(=O)n(-c4cncc5ccccc45)c(=O)[nH]c3c2)c(Cl)cc1F [Example 299] |  | 36.1 nM | 72.4 nM | 
42 | O=c1[nH]c2cc(-c3c(Cl)cccc3-c3cncc(C(F)(F)F)c3)ccc2c(=O)n1-c1cncc2ccccc12 [Example 206] |  | 20.6 nM | 42.4 nM | 
43 | COc1cccc(Cl)c1-c1ccc2c(=O)n(-c3cncc4ccccc34)c(=O)[nH]c2c1 [Example 58] |  | 164 nM | 158 nM | 
44 | 6-[2-chloro-6-(8-methyl-[1,2,4]triazolo[1,5-a]pyridin-6-yl)phenyl]-3-(6-methoxy-4-isoquinolyl)-1H-thieno[3,2-d]pyrimidine-2,4-dione [Example 565] | 16.5 nM |  |  | EC50 (SARS-CoV-2-NLuc; read-out: MPro EC50): 58.1 nM
45 | O=c1[nH]c2cc(-c3ccccc3Cl)ccc2c(=O)n1-c1cncc2ccccc12 (single isomer, unassigned) [Example 105, 7-(2-chlorophenyl)-3-(isoquinolin-4-yl)quinazoline-2,4(1H,3H)-dione] |  |  | 70.9 nM | EC50 (SARS-CoV-2-NLuc; read-out: MPro EC50): 74.3 nM
46 | CCCOc1ccc(Cl)c(-c2ccc3c(=O)n(-c4cncc5ccccc45)c(=O)[nH]c3c2)c1 [Example 249] |  | 110 nM | 269 nM | 
47 | COc1ccc(Cl)c(-c2cc3[nH]c(=O)n(-c4cncc5ccccc45)c(=O)c3s2)c1 [Example 174, 6-(2-chloro-5-methoxyphenyl)-3-(isoquinolin-4-yl)thieno[3,2-d]pyrimidine-2,4(1H,3H)-dione] |  | 30.7 nM | 6.99 nM | 
